Test results as given in US20070037751A1, “Uses of secretagogues like ghrelin in cancer cachexia and for stimulating appetite” (priority 2003, published 2007).
Entries after “also recorded” stand apart in the source; their conditions may differ.

Experiments:
[1] = Pharmacokinetics of ghrelin formulations after subcutaneous administration in rats (Examples 9 and 10); format: in vivo, Sprague Dawley rats; parameters: Tmax: dose or concentration left out as unconfirmed; details: rat
Protocol: Two different types of liposomes were made containing dipalmitoyl DL-α-phosphatidylcholine (DPPC ) and a mixture of phosphatidylcholin and cholesterol (PC/Chol), respectively. The liposomes were prepared by dissolving and mixing the lipids in chloroform. Chloroform was removed overnight by rotation evaporation, and the resulting lipid film was first striped with ethanol (99,9%) and then left overnight in the rotation evaporator. The multilamellar liposomes were formed by hydration in HEPES-buffer (10 mM HEPES, 50 mM KCl, 1mM NaN3, pH=5,5) for at least 1 h. The hydration temperature was 51° C. (10° C. above the Tm of the phospholipids). Subsequently, the liposomes were sonicated for 30 sec every 10 min during one hour using a tip sonicator. One hundred nanometer unilamellar liposomes were made from the multilamellar liposomes by extrusion through 100 nm polycarbonate filters. Size measurements were performed by dynamic light scattering (DLS) using a Zetasizer 4 (Malvern, UK). Tm were determined by Differential Scanning Caleometry (DSC; MicroCal™ Incorporated). Ghrelin were added approximately 2 h before the administration of the formulation to the animals in doses of 60 μg per 500 μL
Intralipid 30% were purchased from the local Pharmacy on the Danish University Hospital Copenhagen (Rigshospitalet). 1000 mL contain: purified soybean oil 300 g, purified egg phospholipids 12 g, glycerol anhydrous 16.7 g, water for injection q.s. ad 1 000 mL. pH is adjusted with sodium hyroxide to pH approximately 7.5.
Animals: Thirty (30) male Sprague Dawley rats (aged 6-7 weeks; approximately 300 g; Charles River, Germany) were used. Upon arrival at the animal facility, they were housed 3 per cage for one week, and subsequently transferred to individual cages with access to food and water ad libitum.
After one week of singly housing, the rats were ready for experiments and were randomized into 5 weight-matched groups (6 pr. group):
All compounds were administered by subcutaneous administration (0.5 ml/300g rat)
On the experimental day (0800-0930), 15 minute prior to receiving the test dose, a 200 μl blood sample was drawn from the tail vein. At time point 0 a second blood sample was drawn and immediately after rats received an sc injection with test compound according to the groups listed above. Seven more samples were drawn (volume 200 μl) at time points: 15, 30, 45, 60, 90, 120 and 240 minutes post injection according to study outline. The total blood volume drawn was 1800 μl (approx. 10% of total blood volume).
Blood samples were kept on ice until plasma separation could be performed. After centrifugation (4000 rpm for 10 minutes) plasma was transferred to vials/tubes containing 5 μL 1N HCl og 5 μL 2mg/mL solution of Phenylmethylsulfonyl fluoride in isopropanol.
The active (acylated) ghrelin in the plasma samples was measured by use of a RIA assay (Linco Research, Inc) according to the manufactures protocol.

[2] = Plasma ghrelin after subcutaneous bolus injection of ghrelin in mice (Example 6); format: in vivo
Protocol: 6+6 mice received 12 or 24 nmol of ghrelin by a subcutaneous bolus injection in the neck (corresponding to 400 and 800 nmol kg^−1, respectively). […] Immunoactive ghrelin was measured in 20 μl plasma with a radioimmunoassay (RIA) that uses an antiserum raised against acylated human ghrelin (Phoenix Pharmaceuticals); ^125I-labelled ghrelin-28 was used as a tracer a rat ghrelin-28 as standard. […] Plasma concentrations were expressed as pmol equivalents of rat ghrelin-28 per liter. Active (octanoylated) ghrelin was determined in 50 μl plasma using an enzyme linked immunosorbent assay (ELISA) kit (LINCO Research, St. Charles, Mo., USA).

[3] = Daily subcutaneous ghrelin for 8 weeks in gastrectomised and sham-operated mice (Example 7); format: in vivo
Protocol: Mice were subjected to gastrectomy or to sham operation. Gastrectomy was carried out by resecting the glandular stomach (antrum and fundus), followed by anastomozing the duodenum and the rumen end-to-end. The mortality associated with gastrectomy was 10%. Some of the gastrectomised and sham-operated mice received a subcutaneous dose of ghrelin (12 nmol) daily for 8 weeks. Controls received saline. […] After 8 weeks the mice were killed by decapitation (16-18 h after the last injection). Blood was collected and plasma stored at −20° C. for measurement of ghrelin (see below). Lean tissue was analysed by dual energy x-ray absorptiometry (DXA) (PIXImus, Lunar Corporation, Madison, […]., USA). White adipose tissue (WAT) (mesenteric, retroperitoneal-renal, gonadal and inguinal) and intrascapular brown adipose tissue (BAT) was dissected out and weighed
Measurement of circulating ghrelin: If not otherwise stated, determination of circulating ghrelin was carried out on plasma from animals at sacrifice (end-point analysis). Immunoactive ghrelin was measured in 20 pi plasma with a radioimmunoassay (RIA) that uses an antiserum raised against acylated human ghrelin (Phoenix Pharmaceuticals); ^125I-labelled ghrelin-28 was used as a tracer a rat ghrelin-28 as standard. […] Plasma concentrations were expressed as pmol equivalents of rat ghrelin-28 per liter. Active (octanoylated) ghrelin was determined in 50 μl plasma using an enzyme linked immunosorbent assay (ELISA) kit (LINCO Research, St. Charles, Mo., USA).
Statistical analysis: Values are expressed as means±S.E.M. Differences were analyzed by the student t-test or by one-way analysis of variance (ANOVA), using Bonferroni's multiple comparison test. A p value of less than 0.05 was considered statistically significant.

[4] = Clinical follow-up of a cancer cachexia patient treated with ghrelin (Example 4); format: in vivo, human
Protocol: (§1) The patient was treated with subcutaneous injections of 0.8 to 1.5 micrograms/kg ghrelin twice daily for 4 weeks. The injections were taken before meals.
The patient was followed weekly by standard laboratory tests, Cachexia/anorexia and quality of life questionnaires, body-weight, body-composition analysis (DEXA-scan) and chest-x-ray or thorax-CT among others.

growth hormone = assay: Plasma growth hormone before and after subcutaneous ghrelin in a cancer cachexia patient (Example 4); format: in vivo, human; details: before and after the two subcutaneous injections, 0.8 to 1.5 micrograms/kg twice daily, one patient
Protocol: as §1
Pharmacokinetic and pharmacodynamic assessment was performed at day 1 and 2 by blood sampling before and after each injection and measurement of plasma levels of growth hormone and active and total ghrelin.

[5] = continuous intravenous infusion for 270 minutes, 5 pmol/kg/min; cited from earlier work
[6] = Clinical follow-up of a cancer cachexia patient treated with ghrelin (Example 4); format: in vivo, human; details: weekly IV injections, before the subcutaneous treatment
[7] = infusion for 90 minutes, cancer cachexia patients; cited from earlier work
[8] = ghrelin (200 mg/kg) in a buffer
[9] = gastrectomised mice, 12 nmol sc daily, 8 weeks
[10] = subcutaneous 0.8 to 1.5 micrograms/kg twice daily for 4 weeks, one patient

Compound: CCCCCCCC(=O)OC[C@H](NC(=O)[C@H](CO)NC(=O)CN)C(=O)N[C@@H](Cc1ccccc1)C(=O)N[C@@H](CC(C)C)C(=O)N[C@@H](CO)C(=O)N1CCC[C@H]1C(=O)N[C@@H](CCC(=O)O)C(=O)N[C@@H](Cc1cnc[nH]1)C(=O)N[C@@H](CCC(N)=O)C(=O)N[C@@H](CCCNC(=N)N)C(=O)N[C@H](C(=O)N[C@@H](CCC(N)=O)C(=O)N[C@@H](CCC(N)=O)C(=O)N[C@@H](CCCNC(=N)N)C(=O)N[C@@H](CCCCN)C(=O)N[C@@H](CCC(=O)O)C(=O)N[C@@H](CO)C(=O)N[C@@H](CCCCN)C(=O)N[C@@H](CCCCN)C(=O)N1CCC[C@H]1C(=O)N1CCC[C@H]1C(=O)N[C@@H](C)C(=O)N[C@@H](CCCCN)C(=O)N[C@@H](CC(C)C)C(=O)N[C@@H](CCC(N)=O)C(=O)N1CCC[C@H]1C(=O)N[C@@H](CCCNC(=N)N)C(=O)O)C(C)C [ghrelin]
- decrease of plasma concentration in the 15 min after the maximum (time point 30 min) [1, 8]: approximately 30%
- further decrease of plasma concentration in the following 15 min (time point 45) [1, 8]: ~60%
- increase in active ghrelin in plasma [1, 8]: approximately 10 fold
- plasma level of active ghrelin after 120 min [1, 8]: slightly increased
- plasma level of active ghrelin after 240 min [1, 8]: back to basal level
- Tmax ([1]; male, Sprague Dawley, plasma, sc, ghrelin in a buffer, read-out: time of maximal plasma concentration of ghrelin (converted)): 15 min
- plasma ghrelin 6 h after injection ([2]; 12 nmol sc, 6 h): still elevated
- plasma concentration of active (octanoylated) ghrelin 6 h after injection ([2]; 12 nmol sc, 6 h, n=4): remained high
- plasma concentration of active (octanoylated) ghrelin (ELISA) ([2]; 12 nmol sc, n=4): greatly elevated
- plasma ghrelin concentration (RIA, octanoylated and des-octanoylated) ([2]; 12 and 24 nmol sc, n=6 in each group): raised
- plasma ghrelin concentration 16-18 h after injection ([3]; 12 nmol sc daily for 8 weeks, 16-18 h after the last injection): elevated
- amount of fat (fat depots) [3, 9]: normalized the fat depots
- amount of lean tissue (lean body mass, DXA) [3, 9]: reversed the effect; also recorded: normalized
- body weight raised [3, 9]: 8%
- lean body mass, ghrelin versus saline ([3]; sham-operated mice, 12 nmol sc daily, 8 weeks): no difference
- tumor progression (CT-scans) ([4]; mesothelioma, during the subcutaneous ghrelin treatment, 4 weeks): did not progress
- body weight and body composition ([4]; subcutaneous 0.8 to 1.5 micrograms/kg twice daily before meals for 4 weeks, one patient): stable body weight and body composition
- ability to eat meals [4, 10]: able to eat full plates of meals and finish these; also recorded: increased objective hunger and ability to eat meals
- hunger [4, 10]: did not feel more intensified hunger; also recorded: increased objective hunger
- adverse effects ([4]; subcutaneous treatment, 4 weeks): no significant adverse effects
- lab values ([4]; subcutaneous treatment, weekly standard laboratory tests): did not show a substantial difference
- increase in plasma growth hormone levels (growth hormone): more than 5 fold
- food intake [5]: increase in food intake
- response to ghrelin treatment [6]: responded well
- increase of food intake [7]: 30%
